Here are results for 11 compounds from ChEMBL document CHEMBL1132097, “Fluorobenzamidrazone thrombin inhibitors: influence of fluorine on enhancing oral absorption” (Bioorg Med Chem Lett, 1999).

Data set [1] can be described thus: Absorption behavior was judged by the peak blood concentration determined after oral dose of 30 mg/kg in rats. To be noted: rat. Format: ADME, organism-based. On the set-up: dose 30 mg/kg, route oral.
Data set [2] in a line: Absorption behavior was judged by the area under the curve, determined after oral dose of 30 mg/kg in rats. The class given is ADME, organism-based. Also noted: dose 30 mg/kg, route oral. To be noted: rat, in vivo.
For data set [3], the target named is T1, Prothrombin (Homo sapiens, UniProt P00734). Kind of data set: Inhibitory constant against human thrombin was determined in vitro.
The target of data set [4] is T2, Serine protease 1 (Bos taurus, UniProt P00760).
T2 sequence (P00760 whole entry): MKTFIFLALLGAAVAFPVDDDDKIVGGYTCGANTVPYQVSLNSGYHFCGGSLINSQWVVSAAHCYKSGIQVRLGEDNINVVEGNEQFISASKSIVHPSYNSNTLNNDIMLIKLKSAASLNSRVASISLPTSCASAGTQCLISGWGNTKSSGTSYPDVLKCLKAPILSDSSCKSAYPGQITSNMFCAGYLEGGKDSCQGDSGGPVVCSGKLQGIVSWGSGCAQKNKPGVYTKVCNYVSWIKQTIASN
Kind of data set: Inhibitory constant against bovine trypsin was determined in vitro.

The target in data set [5] is T1, Prothrombin. Kind of data set: Inhibitory constant against human thrombin was determined in vitro.
For data set [6], the target named is T2, Serine protease 1. Kind of data set: Inhibitory constant against bovine trypsin was determined in vitro.

By Cmax is commonly meant the maximum level reached in the sampled fluid or tissue. A word on the AUC: it is concentration integrated over time. Lower therefore signals less exposure. One may read the Ki as the dissociation constant of the complex between target and ligand, obtained from inhibition or displacement. Regarding `CCCc1ccc(S(=O)(=O)N[C@@H](Cc2ccc(C(N)=NN)cc2)C(=O)N(C)C2CCCC2)cc1`, the peak level in data set [1] (Cmax) was 1170 nM. Further, the AUC in data set [2] was 2.23 µM·h. Further, the Ki in data set [3] came to 0.2 nM; in data set [4] it was 3500 nM.

The compound `CCCc1ccc(S(=O)(=O)N[C@@H](Cc2ccc(C(=N)NN)c(F)c2)C(=O)N(C)C2CCCC2)cc1` returned a Cmax in data set [1] of 2780 nM. This compound showed an area under the curve (AUC) in data set [2] of 4.17 µM·h. Further, the Ki in data set [5] came to 1.8 nM; in data set [6], 22000 nM.

Consider `COc1ccc2cc(S(=O)(=O)N[C@@H](Cc3ccc(C(N)=NN)cc3)C(=O)N(C)C3CCCC3)ccc2c1`, for which the Cmax in data set [1] came out at 1130 nM. Moreover, the AUC in data set [2] was 2.62 µM·h. For the same compound, the Ki in data set [5] was 0.06 nM; in data set [6], 9200 nM.

For the compound `CCCc1ccc(S(=O)(=O)N[C@@H](Cc2ccc(C(N)=NN)cc2F)C(=O)N(C)C2CCCC2)cc1`, the Cmax in data set [1] turned out to be 1350 nM. The compound also showed an AUC in data set [2] of 2.68 µM·h. For the same compound, the Ki stood at 0.7 nM in data set [5] and 4000 nM in data set [6].

The compound `CN(C(=O)[C@H](Cc1ccc(C(N)=NN)c(F)c1)NS(=O)(=O)c1ccc2c(c1)CCCC2)C1CCCC1` came in with a Cmax in data set [1] of 1340 nM. This compound also gave an AUC in data set [2] of 1.63 µM·h. The Ki in data set [5] was determined as 0.9 nM; in data set [6], 25000 nM.

The compound `COc1ccc2cc(S(=O)(=O)N[C@@H](Cc3ccc(C(N)=NN)cc3F)C(=O)N(C)C3CCCC3)ccc2c1` registered a Cmax in data set [1] of 2410 nM. In addition, in data set [2], the AUC is 3.28 µM·h. Also, the Ki amounted to 0.2 nM in data set [5] and 2000 nM in data set [6].

Turning to `CN(C(=O)[C@H](Cc1ccc(C(=N)NN)cc1)NS(=O)(=O)c1ccc2ccccc2c1)C1CCCC1`, the Cmax in data set [1] came to 1610 nM. Moreover, the AUC in data set [2] is 2.33 µM·h. The Ki in data set [5] was 0.4 nM; in data set [6] it was 33000 nM.

In data set [1], `CN(C(=O)[C@H](Cc1ccc(C(N)=NN)cc1)NS(=O)(=O)c1ccc2c(c1)CCCC2)C1CCCC1` yielded a Cmax of 360 nM. Also, the AUC in data set [2] is 0.817 µM·h. Also, the values for the Ki in data set [5] and in data set [6] were 0.1 nM and 4600 nM, respectively.

Compound `CN(C(=O)[C@H](Cc1ccc(C(=N)NN)cc1F)NS(=O)(=O)c1ccc2ccccc2c1)C1CCCC1` had a Cmax in data set [1] of 1630 nM. Moreover, in data set [2], the AUC was 1.83 µM·h. In addition, the Ki in data set [5] came out at 2 nM; in data set [6] it was 11000 nM.

In data set [1], `CN(C(=O)[C@H](Cc1ccc(C(N)=NN)c(F)c1)NS(=O)(=O)c1ccc2ccccc2c1)C1CCCC1` came in with a Cmax of 4130 nM. Also, in data set [2], the AUC was 6.67 µM·h. Moreover, the Ki in data set [5] was found to be 5.5 nM; in data set [6], 25000 nM.

`CN(C(=O)[C@H](Cc1ccc(C(=N)NN)cc1F)NS(=O)(=O)c1ccc2c(c1)CCCC2)C1CCCC1` displayed a Cmax in data set [1] of 1030 nM. In addition, in data set [2], the AUC is 1.37 µM·h. Besides, the results for the Ki in data set [5] and in data set [6] were 0.5 nM and 3000 nM, respectively.
